The results in this text go back to PubChem BioAssay AID1963980 (Molecular Pharmacology Branch, DTP, NCI, 2024).

“And” between values parts separate entries of the source, which are not always exact repeats. Equal values may be shown once. Some results are limits rather than exact numbers.

A word on the viability, T/C: it is the result in the treated group divided by that in the control group, in per cent. The IC50 is the point on the concentration scale where inhibition reaches its midpoint.

The test system of the experiment is 475296-252-R-J1-PDC spheroid viability. Put plainly: Anticancer human tumor 475296-252-R-J1-PDC patient-derived rectal carcinoma cell line growth inhibition [PI3K]. Conditions: spheroids with HUVEC and MSC; for viability, T/C: stronger effect = lower value. An outline of the steps:
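Agents were dosed from a top concentration near clinical Cmax (otherwise 10 microM) in half-log decrements, alone or combined with PI3K inhibitors. The spheroids contain tumor cells plus endothelial (HUVEC) and MSC stroma; viability is measured.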
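Note: spheroids exposed to agents for seven days before readout.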

On to `Cn1cnc2c(F)c(Nc3ccc(Br)cc3Cl)c(C(=O)NOCCO)cc21`, for which the viability, T/C was 97.5% [middle of 4 runs] (compound 0.00949 µM); 91.9% [middle of 4 runs] (compound 0.03 µM); 90.2% [middle of 4 runs] (compound 0.0949 µM); 80.8% [middle of 4 runs] (compound 0.3 µM); 61.2% [middle of 4 runs] (compound 3 µM). In addition, the IC50 (curve of compound) was > 3 µM and 2.76 µM.
For `CC(C)NCC(C(=O)N1CCN(c2ncnc3c2C(C)CC3O)CC1)c1ccc(Cl)cc1` (stereo not drawn), the viability, T/C (compound 0.0316 µM) was 102% [middle of 4 runs]; the viability, T/C (compound 0.1 µM) was 105% [middle of 4 runs]; the viability, T/C (compound 0.316 µM) is 89.5% [middle of 4 runs]; the viability, T/C (compound 1 µM) was 76.1% [middle of 4 runs]; the viability, T/C (compound 3.16 µM) is 75.5% [middle of 4 runs]; the viability, T/C (compound 10 µM) is 62.3% [middle of 4 runs]. The IC50 (curve of compound) was above 10 µM.
For the molecule `CC(=O)c1c(C)c2cnc(Nc3ccc(N4CCNCC4)cn3)nc2n(C2CCCC2)c1=O`, the viability, T/C runs as follows: (compound 0.000316 µM) 106% [middle of 4 runs]; (compound 0.001 µM) 98.3% [middle of 4 runs]; (compound 0.00316 µM) 98% [middle of 4 runs]; (compound 0.01 µM) 98.9% [middle of 4 runs]; (compound 0.0316 µM) 108% [middle of 4 runs]; (compound 0.1 µM) 108% [middle of 4 runs]. The IC50 (curve of compound) is above 0.1 µM.
With `Cn1nccc1Nc1nccc(-c2ccn(C(CO)c3ccc(Cl)c(F)c3)c(=O)c2)n1` (stereo not drawn), the viability, T/C is 104% [middle of 4 runs] (compound 0.0316 µM); 96.6% [middle of 4 runs] (compound 0.1 µM); 102% [middle of 4 runs] (compound 0.316 µM); 89.5% [middle of 4 runs] (compound 1 µM); 82.3% [middle of 4 runs] (compound 10 µM). Besides, the IC50 (curve of compound) is above 10 µM.
In the case of `CC(C)n1nc(-c2ccc3oc(N)nc3c2)c2c(N)ncnc21` + CC(Nc1ccc2c(c1)OCCn1cc(N3C(=O)OCC3C(F)F)nc1-2)C(N)=O, the IC50 reads like this: (curve of first compound, second compound 0.00316 µM) above 0.1 µM; (curve of first compound, second compound 0.01 µM) above 0.1 µM; (curve of first compound, second compound 0.0316 µM) above 0.1 µM; (curve of first compound, second compound 0.1 µM) above 0.1 µM; (curve of first compound, second compound 0.316 µM) above 0.1 µM; (curve of first compound, second compound 1 µM) above 0.1 µM. Also, the viability, T/C was 91% (second compound 0.00316 µM, first compound 0.000316 µM); 83.2% (second compound 0.00316 µM, first compound 0.001 µM); 89.2% (second compound 0.00316 µM, first compound 0.00316 µM); 73.2% (second compound 0.00316 µM, first compound 0.01 µM); 74.9% (second compound 0.00316 µM, first compound 0.0316 µM); 58.7% (second compound 0.00316 µM, first compound 0.1 µM). The viability, T/C (second compound 0.01 µM, first compound 0.000316 µM) was 97.3%; the viability, T/C (second compound 0.01 µM, first compound 0.001 µM) is 81.5%; the viability, T/C (second compound 0.01 µM, first compound 0.00316 µM) was 95.1%; the viability, T/C (second compound 0.01 µM, first compound 0.01 µM) was 85.7%; the viability, T/C (second compound 0.01 µM, first compound 0.0316 µM) was 82.3%; the viability, T/C (second compound 0.01 µM, first compound 0.1 µM) was 61.4%. Also, the viability, T/C was 85.5% (second compound 0.0316 µM, first compound 0.000316 µM); 113% (second compound 0.0316 µM, first compound 0.001 µM); 94.8% (second compound 0.0316 µM, first compound 0.00316 µM); 89.8% (second compound 0.0316 µM, first compound 0.01 µM); 77.7% (second compound 0.0316 µM, first compound 0.0316 µM); 58% (second compound 0.0316 µM, first compound 0.1 µM). The viability, T/C runs as follows: (second compound 0.1 µM, first compound 0.000316 µM) 83.5%; (second compound 0.1 µM, first compound 0.001 µM) 88%; (second compound 0.1 µM, first compound 0.00316 µM) 92%; (second compound 0.1 µM, first compound 0.01 µM) 88.6%; (second compound 0.1 µM, first compound 0.0316 µM) 77%; (second compound 0.1 µM, first compound 0.1 µM) 59.6%. For the same molecule, the viability, T/C is 83.8% (second compound 0.316 µM, first compound 0.000316 µM); 89% (second compound 0.316 µM, first compound 0.001 µM); 88.8% (second compound 0.316 µM, first compound 0.00316 µM); 82.7% (second compound 0.316 µM, first compound 0.01 µM); 74% (second compound 0.316 µM, first compound 0.0316 µM); 58.7% (second compound 0.316 µM, first compound 0.1 µM). Moreover, the viability, T/C is, setting by setting: (second compound 1 µM, first compound 0.000316 µM) 87.4%; (second compound 1 µM, first compound 0.001 µM) 83.3%; (second compound 1 µM, first compound 0.00316 µM) 83%; (second compound 1 µM, first compound 0.01 µM) 85.8%; (second compound 1 µM, first compound 0.0316 µM) 71.1%; (second compound 1 µM, first compound 0.1 µM) 55.2%.
